This is an account of results in patent publication US10111874B2, “Combination therapies for treatment of cancer” (Araxes Pharma LLC, priority 2014, dated 2018).

The target of the experiment is T1, KRAS G12C 1-169, his-tagged protein, GDP-loaded (Homo sapiens, UniProt P01116, G12C).
T1 construct: KRAS G12C 1-169, his-tagged protein, GDP-loaded
The experiment in a line: Biochemical assay: covalent binding to KRAS G12C analyzed by mass spectrometry. Further: test concentration or dose not given here.

Setting [1] is: compounds 247-342, measured at 30 min.
The mark [2] stands for this setting: compounds 48-246, measured at 2 h.

Regarding `C=CC(=O)N1CCN(c2ncnc3c(F)c(-c4ccc(F)cc4F)c(C)cc23)CC1` [Compound I-292, 1-(4-(7-(2,4-difluorophenyl)-8-fluoro-6-methylquinazolin-4-yl)piperazin-1-yl)prop-2-en-1-one], the Binding % entry under setting [1] is reported as “+ (+indicates binding activity from 5% to 25%)”.

For the compound `C=CC(=O)N1CCN(c2ncnc3c(F)c(-c4c(O)cccc4Cl)c(Cl)cc23)CC1` [Compound I-289, 1-(4-(6-chloro-7-(2-chloro-6-hydroxyphenyl)-8-fluoroquinazolin-4-yl)piperazin-1-yl)prop-2-en-1-one], under setting [1], the Binding % entry is “+++ (+++indicates binding activity greater than 50% and up to 75%)”. Still for that read-out and setting: under `C=CC(=O)N1CCN(c2nc(OC3CCOC3)nc3cc(-c4c(C)ccc5[nH]ncc45)c(Cl)cc23)CC1` (centres unmarked) [Compound 300, 1-(4-(6-chloro-7-(5-methyl-1H-indazol-4-yl)-2-(tetrahydrofuran-3-yloxy)quinazolin-4-yl)piperazin-1-yl)prop-2-en-1-one] stands “++ (++indicates binding activity greater than 25% and up to 50%)”. On to “1-(4-(2′,6-dichloro-4-methoxybiphenylcarbonyl)piperazin-1-yl)prop-2-en-1-one [III-1]”, for which the Binding % result (determined at 24 hrs) is recorded as “+ (+indicates binding activity from 5% to 10%)”. `C=CC(=O)N1CC(N2CCN(C(=O)CNc3cc(Cl)ccc3O)CC2)C1` [II-19, 1-(3-(4-(2-(5-chloro-2-hydroxyphenyl-amino)acetyl)-piperazin-1-yl)azetidin-1-yl)prop-2-en-1-one]: the Binding % result (determined at 24 hrs) is “+++ (+++indicates binding activity greater than 25% and up to 50%)”. `C=CC(=O)N1CCN(c2ncnc3cc(-c4ccccc4C4(C)CC4)c(Cl)cc23)CC1` [Compound I-222, 1-(4-(6-chloro-7-(2-(1-methylcyclopropyl)phenyl)quinazolin-4-yl)piperazin-1-yl)prop-2-en-1-one]: under setting [2], the Binding % result is “+++ (+++indicates binding activity greater than 50% and up to 75%)”. With `C=CC(=O)N1CCN(c2ncnc3cc(Cl)c(-c4ccc(Cl)cc4)cc23)CC1CC#N` (centres unmarked) [Compound I-70, 2-(1-acryloyl-4-(7-chloro-6-(4-chlorophenyl)quinazolin-4-yl)piperazin-2-yl)acetonitrile], under setting [2], the Binding % result was “+++ (+++indicates binding activity greater than 50% and up to 75%)”. Turning to `C=CC(=O)N1CCN(c2ncnc3cc(Cl)c(-c4ccc(Cl)cc4)cc23)C[C@H]1C(N)=O` [Compound I-54, (S)-1-acryloyl-4-(7-chloro-6-(4-chlorophenyl)quinazolin-4-yl)piperazine-2-carboxamide], the Binding % entry under setting [2] was “++ (++indicates binding activity greater than 25% and up to 50%)”. As for `C=CC(=O)N1CCN(c2ncnc3cc(-c4cccs4)c(Cl)cc23)CC1` [Compound I-185, 1-(4-(6-chloro-7-(thiophen-2-yl)quinazolin-4-yl)piperazin-1-yl)prop-2-en-1-one], the Binding % result under setting [2] is “++ (++indicates binding activity greater than 25% and up to 50%)”. For the compound `C=CC(=O)N1CC(Nc2ncnc3cc(-c4ccccc4)c(Cl)cc23)C1` [Compound I-96, 1-(3-(6-chloro-7-phenylquinazolin-4-ylamino)azetidin-1-yl)prop-2-en-1-one], under setting [2], the Binding % entry was “+ (+indicates binding activity from 5% to 25%)”. Consider `C=CC(=O)N1CCN(c2ncnc3c(Cl)c(-c4c(OC)ccc5ccccc45)c(Cl)cc23)CC1` [Compound I-286, 1-(4-(6,8-dichloro-7-(2-methoxynaphthalen-1-yl)quinazolin-4-yl)piperazin-1-yl)prop-2-en-1-one], for which the Binding % result under setting [1] is “+ (+indicates binding activity from 5% to 25%)”. Take `C=CC(=O)N1CCN(c2ncnc3c(F)c(-c4cc(C(F)F)cc5ccccc45)c(Cl)cc23)CC1` [Compound 337]: the Binding % result under setting [1] is “+ (+indicates binding activity from 5% to 25%)”. Consider `C=CC(=O)N1CC(N2CCN(C(=O)Cn3ccc4c(Cl)c(Cl)cc(OC)c43)CC2)C1` [II-75, 1-(3-(4-(2-(4,5-dichloro-7-methoxy-1H-indol-1-yl)acetyl)piperazin-1-yl)azetidin-1-yl)prop-2-en-1-one], for which, for the setting “determined at 2 hrs”, the Binding % entry is on record as “+ (+indicates binding activity from 5% to 20%)”.

As to `C=CC(=O)N1CCN(c2ncnc3c(F)c(-c4c(C)cccc4OC)c(Cl)cc23)CC1` [Compound I-287, 1-(4-(6-chloro-8-fluoro-7-(2-methoxy-6-methylphenyl)quinazolin-4-yl)piperazin-1-yl)prop-2-en-1-one], under setting [1], the Binding % result is “++ (++indicates binding activity greater than 25% and up to 50%)”. On the same count and under the same terms, under `C=CC(=O)N1CCN(c2ncnc3c(F)c(-c4c(C)ccc5[nH]ncc45)c(Cl)cc23)CC1CC#N` (centres unmarked) [Compound I-294] stands “++++ (++++indicates binding activity greater than 75%)”. As to `C=CC(=O)N1CCN(c2ncnc3cc(Cl)c(-c4ccccc4)cc23)CC1C#N` (centres unmarked) [Compound I-52, 1-acryloyl-4-(7-chloro-6-phenylquinazolin-4-yl)piperazine-2-carbonitrile], the Binding % result under setting [2] is on record as “++++ (++++indicates binding activity greater than 75%)”. On to `CN(C)C/C=C/C(=O)N1CCN(c2ncnc3c(F)c(-c4c(O)cccc4F)c(Cl)cc23)CC1` [Compound 301, (E)-1-(4-(6-chloro-8-fluoro-7-(2-fluoro-6-hydroxyphenyl)quinazolin-4-yl)piperazin-1-yl)-4-(dimethylamino)but-2-en-1-one], for which, under setting [1], the Binding % result is “++ (++indicates binding activity greater than 25% and up to 50%)”. For the compound `C=CC(=O)N1CCN(c2ncnc3c(F)c(-c4cc(O)cc5ccccc45)c(Cl)cc23)CC1` [Compound I-256, 1-(4-(6-chloro-8-fluoro-7-(3-hydroxynaphthalen-1-yl)quinazolin-4-yl)piperazin-1-yl)prop-2-en-1-one], the Binding % result (compounds 247-342, measured at 30 min, listed as 256) is “+++ (+++indicates binding activity greater than 50% and up to 75%)”.

For `C=CC(=O)N1CCN(c2ncnc3c(F)c(-c4c(F)ccc(F)c4O)c(Cl)cc23)CC1` [Compound I-277, 1-(4-(6-chloro-7-(3,6-ddifluoro-2-hydroxyphenyl)-8-fluoroquinazolin-4-yl)piperazin-1-yl)prop-2-en-1-one], under setting [1], the Binding % entry is “+ (+indicates binding activity from 5% to 25%)”. As for `Cc1ccc2[nH]ncc2c1-c1c(Cl)cc2c(N3CCN(C(=O)/C=C/CN(C)C)CC3)ncnc2c1F` [Compound I-295, (E)-1-(4-(6-chloro-8-fluoro-7-(5-methyl-1H-indazol-4-yl)quinazolin-4-yl)piperazin-1-yl)-4-(dimethylamino)but-2-en-1-one], the Binding % result under setting [1] is “+ (+indicates binding activity from 5% to 25%)”. In the case of `C=CC(=O)N1CCN(c2ncnc3cc(-c4ccccc4)ccc23)CC1` [Compound I-87], under setting [2], the Binding % result was “+ (+indicates binding activity from 5% to 25%)”. For the compound `C=CC(=O)N1CCN(c2n[nH]c3cc(Cl)c(-c4ccccc4Cl)cc23)CC1` [Compound I-3, 1-(4-(6-chloro-5-(2-chlorophenyl)-1H-indazol-3-yl)piperazin-1-yl)prop-2-en-1-one], the Binding % entry (compounds 1-47, measured at 24 h) was “+ (+indicates binding activity from 5% to 25%)”. With `C=CC(=O)N1CCN(c2ncnc3cc(-c4ccccc4S(N)(=O)=O)c(Cl)cc23)CC1` [Compound I-213, 2-(4-(4-acryloylpiperaqzin-1-yl)-6-chloroquinazolin-7-yl)benzenesulfonamide], under setting [2], the Binding % result was “++ (++indicates binding activity greater than 25% and up to 50%)”.
